{"source": "patent US20030236212A1", "about": "“Functionalized long chain derivatives as acyl coenzyme-A mimics, compositions thereof, and methods of cholesterol management and related uses” (priority 2002, published 2003)", "key": {"primary rat hepatocytes": {"test_system": "primary rat hepatocytes", "assay": "Synthesis of total lipids (14C-acetate labeling) in primary rat hepatocytes", "assay_type": "cell-based", "settings": "rat hepatocyte cells, 14C-acetate 4 hr, vs vehicle control", "protocol": "A male Sprague-Dawley rate was anesthetized by administration of sodium pentobarbitol by intraperitoneal at 80 mg/kg. In situ perfusion of the liver was performed as follows. The abdomen of the animal was opened, the portal vein canulated, and the liver perfused with WOSH solution (149 mM NaCl, 9.2 mM Na HEPES, 1.7 mM Fructose, 0.5 mM EGTA, 0.029 mM Phenol red, 10 U/ml heparin, pH 7.5) at a flow rate of 30 ml/min for 6 minutes. To digest the liver, DSC solution (6.7 mM KCl, 143 mM NaCl, 9.2 mM Na HEPES, 5 mM CaCl2-2H2O, 1.7 mM Fructose, 0.029 mM Phenol red, 0.2% BSA, 100 U/ml collagenase Type 1,160 BAEE/ml trypsin inhibitor, pH 7.5) was perfused through the liver at a flow rate of 30 ml/min for 6 minutes at a temperature of 37° C. After digestion, cells were dispersed in a solution of DMEM-(DMEM containing 2 mM GlutMax-1, 0.2% BSA, 5% FBS, 12 nM insulin, 1.2 μM hydrocortisone) to stop the digestion process. The crude cell suspension was filtered through three layers of stainless steel mesh with pore sizes of 250, 106, and 75 μm respectively. Filtered cells were centrifuged at 50×g for two minutes and the supernatant discarded. The resulting cell pellet was resuspended in DMEM and centrifuged again. This final cell pellet was resuspended in DMEM+HS solution (DMEM containing 2 mM GlutMax-1, 20 mM delta-aminolevulinic acid, 17.4 mM MEM nonessential amino acids, 20% FBS, 12 nM insulin, 1.2 μM hydrocortisone) and plated to form monolayer cultures at a density of 100×10^3 cells/cm^2 on collagen coated culture dishes.\nTo test the effect of an illustrative compound of the invention on synthesis rates of total lipids, the monolayer cultures were exposed to 1, 3, 10, 30, 100, or 300 μM of Compound A or 10 μM of Compound 1 in DMEM+containing 1 μCi/ml 14C-acetate, D-glucose, hepes, glutamine, leucine, alanine, lactate, pyruvate, non-essential amino acids, BSA, and gentamicine. Control cells were exposed to the same media lacking lovastatin or the test compounds. All cells were exposed to 0.1% DMSO. Metabolic labeling with ^14C-acetate continued for 4 hr at 37° C. After labeling, cells were washed twice with 1 mL of PBS followed by addition of scintallant (Microscent E) and counted on Topcount®."}, "obese female Zucker rats": {"test_system": "obese female Zucker rats", "assay": "Oral daily treatment of obese female Zucker rats for 14 days (body weight, serum lipids, glucose, insulin)", "assay_type": "in vivo, rat", "design": "HDL-C / Glucose / Insulin / NEFA / BHA / TG / TC / Non HDL-C: unit not given here", "protocol": "The dosing vehicle was administered to control animals in parallel experiments.\nBody weight was determined daily prior to dosing. Animals were allowed free access to rodent chow and water throughout the study. Blood glucose was determined after a 6-hour fast in the afternoon without anesthesia from a tail vein. Serum was also prepared from a blood sample subsequently obtained from the orbital venous plexus (with O2/CO2 anesthesia) prior to and after one week treatment and used lipid and insulin determinations. At two weeks, blood glucose was again determined after a 6-hour fast without anesthesia from a tail vein. Soon thereafter, animals were sacrificed by CO2 inhalation in the afternoon and cardiac blood serum was collected and assessed for various lipids and insulin."}, "[1]": {"settings": "obese female Zucker rats, oral gavage daily 14 days, 100 mg/kg"}, "[2]": {"settings": "obese female Zucker rats, oral, 14 days, 100 mg/kg/day (Table 1)"}}, "note": "Like-named read-outs stand apart in the source and are kept apart here.", "data": [{"smiles": "CC(C)(CCCCOCCCCC(C)(C)COP(=O)(O)O)COP(=O)(O)O.N.N.N.N", "note": "[Compound A]", "values": [{"measurement": "reduction of rates of total lipid synthesis", "setting": "primary rat hepatocytes; 3 μM", "value": "at least 97%"}, {"measurement": "reduction of rates of total lipid synthesis", "setting": "primary rat hepatocytes; 10 μM", "value": "at least 97%"}, {"measurement": "serum insulin relative to pretreatment", "setting": "obese female Zucker rats; fasted obese female Zucker rats, two weeks of treatment, 100 mg/kg", "value": "rose slightly"}, {"measurement": "liver to body weight", "setting": "obese female Zucker rats; [1]", "value": "increased"}, {"measurement": "serum non-esterified fatty acids", "setting": "obese female Zucker rats; [1]", "value": "reduced"}, {"measurement": "serum total cholesterol", "setting": "obese female Zucker rats; [1]", "value": "elevated"}, {"measurement": "serum triglycerides", "setting": "obese female Zucker rats; [1]", "value": "reduced"}, {"measurement": "weight gain, percent of initial weight after two weeks", "setting": "obese female Zucker rats; [1]", "value": 1, "unit": "%"}, {"measurement": "β-hydroxy butyrate levels", "setting": "obese female Zucker rats; [1]", "value": "elevated"}, {"measurement": "BHA", "setting": "obese female Zucker rats; [2]", "value": "1 ± 0.5"}, {"measurement": "Glucose", "setting": "obese female Zucker rats; [2]", "value": "5.6 ± 4.2"}, {"measurement": "HDL-C", "setting": "obese female Zucker rats; [2]", "value": "186.7 ± 51.5"}, {"measurement": "Insulin", "setting": "obese female Zucker rats; [2]", "value": "10.6 ± 26.3"}, {"measurement": "NEFA", "setting": "obese female Zucker rats; [2]", "value": "0.059 ± 0.003"}, {"measurement": "Non HDL-C", "setting": "obese female Zucker rats; [2]", "value": "−30.6 ± 15.4"}, {"measurement": "TC", "setting": "obese female Zucker rats; [2]", "value": "−85.7 ± 1.2"}, {"measurement": "TG", "setting": "obese female Zucker rats; [2]", "value": "833.8 ± 209.9"}, {"measurement": "ratio of non-HDL cholesterol to HDL cholesterol content", "setting": "obese female Zucker rats; obese female Zucker rats, relative to control and reference compound-treated animals, 100 mg/kg", "value": "improved"}, {"measurement": "HDL-cholesterol elevation", "setting": "obese female Zucker rats; obese female Zucker rats, two-week treatment, 100 mg/kg", "value": 9, "unit": "fold"}, {"measurement": "body weight increases", "setting": "obese female Zucker rats; obese female Zucker rats, versus reference compound-treated animals, 100 mg/kg", "value": "did not cause the body weight increases"}, {"measurement": "melting point", "value": "185 to 186", "unit": "°C"}]}, {"smiles": "CC(C)(CCCCCC(=O)CCCCCC(C)(C)COP(=O)(O)O)COP(=O)(O)O.N.N", "note": "[Compound E, Phosphoric Acid mono-(2,2,14,14-tetramethyl-8-oxo-15-phosphonooxy-pentadecyl) Ester, Diammonium Salt]", "values": [{"measurement": "change in vivo at 10 mg/kg/day", "setting": "obese female Zucker rats; Rattus norvegicus, 336 h, obese female Zucker rats, oral daily, fourteen days, 10 mg/kg/day, read-out: % wt. gain", "value": 11, "unit": "%"}, {"measurement": "change in vivo at 10 mg/kg", "setting": "obese female Zucker rats; Rattus norvegicus, 336 h, obese female Zucker rats, oral daily, fourteen days, 10 mg/kg/day, read-out: BHA, Percent Change from Pre-treatment", "value": 140, "unit": "%"}, {"measurement": "change in vivo at 10 mg/kg", "setting": "obese female Zucker rats; Rattus norvegicus, 336 h, obese female Zucker rats, oral daily, fourteen days, 10 mg/kg/day, read-out: Glucose, Percent Change from Pre-treatment", "value": -6, "unit": "%"}, {"measurement": "change in vivo at 10 mg/kg", "setting": "obese female Zucker rats; Rattus norvegicus, 336 h, obese female Zucker rats, oral daily, fourteen days, 10 mg/kg/day, read-out: HDL-C, Percent Change from Pre-treatment", "value": 129, "unit": "%"}, {"measurement": "change in vivo at 10 mg/kg", "setting": "obese female Zucker rats; Rattus norvegicus, 336 h, obese female Zucker rats, oral daily, fourteen days, 10 mg/kg/day, read-out: Insulin, Percent Change from Pre-treatment", "value": 25, "unit": "%"}, {"measurement": "change in vivo at 10 mg/kg", "setting": "obese female Zucker rats; Rattus norvegicus, 336 h, obese female Zucker rats, oral daily, fourteen days, 10 mg/kg/day, read-out: NEFA, Percent Change from Pre-treatment", "value": -5, "unit": "%"}, {"measurement": "change in vivo at 10 mg/kg", "setting": "obese female Zucker rats; Rattus norvegicus, 336 h, obese female Zucker rats, oral daily, fourteen days, 10 mg/kg/day, read-out: Non HDL-C, Percent Change from Pre-treatment", "value": 6, "unit": "%"}, {"measurement": "change in vivo at 10 mg/kg", "setting": "obese female Zucker rats; Rattus norvegicus, 336 h, obese female Zucker rats, oral daily, fourteen days, 10 mg/kg/day, read-out: TC, Percent Change from Pre-treatment", "value": 3, "unit": "%"}, {"measurement": "change in vivo at 10 mg/kg", "setting": "obese female Zucker rats; Rattus norvegicus, 336 h, obese female Zucker rats, oral daily, fourteen days, 10 mg/kg/day, read-out: TG, Percent Change from Pre-treatment", "value": 39, "unit": "%"}, {"measurement": "change in vivo at 30 mg/kg/day", "setting": "obese female Zucker rats; Rattus norvegicus, 336 h, obese female Zucker rats, oral daily, fourteen days, 30 mg/kg/day, read-out: % wt. gain", "value": 10, "unit": "%"}, {"measurement": "change in vivo at 30 mg/kg", "setting": "obese female Zucker rats; Rattus norvegicus, 336 h, obese female Zucker rats, oral daily, fourteen days, 30 mg/kg/day, read-out: BHA, Percent Change from Pre-treatment", "value": 73, "unit": "%"}, {"measurement": "change in vivo at 30 mg/kg", "setting": "obese female Zucker rats; Rattus norvegicus, 336 h, obese female Zucker rats, oral daily, fourteen days, 30 mg/kg/day, read-out: Glucose, Percent Change from Pre-treatment", "value": -1, "unit": "%"}, {"measurement": "change in vivo at 30 mg/kg", "setting": "obese female Zucker rats; Rattus norvegicus, 336 h, obese female Zucker rats, oral daily, fourteen days, 30 mg/kg/day, read-out: HDL-C, Percent Change from Pre-treatment", "value": 174, "unit": "%"}, {"measurement": "change in vivo at 30 mg/kg", "setting": "obese female Zucker rats; Rattus norvegicus, 336 h, obese female Zucker rats, oral daily, fourteen days, 30 mg/kg/day, read-out: Insulin, Percent Change from Pre-treatment", "value": -12, "unit": "%"}, {"measurement": "change in vivo at 30 mg/kg", "setting": "obese female Zucker rats; Rattus norvegicus, 336 h, obese female Zucker rats, oral daily, fourteen days, 30 mg/kg/day, read-out: NEFA, Percent Change from Pre-treatment", "value": -28, "unit": "%"}, {"measurement": "change in vivo at 30 mg/kg", "setting": "obese female Zucker rats; Rattus norvegicus, 336 h, obese female Zucker rats, oral daily, fourteen days, 30 mg/kg/day, read-out: Non HDL-C, Percent Change from Pre-treatment", "value": 51, "unit": "%"}, {"measurement": "change in vivo at 30 mg/kg", "setting": "obese female Zucker rats; Rattus norvegicus, 336 h, obese female Zucker rats, oral daily, fourteen days, 30 mg/kg/day, read-out: TC, Percent Change from Pre-treatment", "value": 126, "unit": "%"}, {"measurement": "change in vivo at 30 mg/kg", "setting": "obese female Zucker rats; Rattus norvegicus, 336 h, obese female Zucker rats, oral daily, fourteen days, 30 mg/kg/day, read-out: TG, Percent Change from Pre-treatment", "value": -2, "unit": "%"}, {"measurement": "change in vivo at 100 mg/kg/day", "setting": "obese female Zucker rats; Rattus norvegicus, 336 h, obese female Zucker rats, oral daily, fourteen days, 100 mg/kg/day, read-out: % wt. gain", "value": 4, "unit": "%"}, {"measurement": "change in vivo at 100 mg/kg", "setting": "obese female Zucker rats; Rattus norvegicus, 336 h, obese female Zucker rats, oral daily, fourteen days, 100 mg/kg/day, read-out: BHA, Percent Change from Pre-treatment", "value": 134, "unit": "%"}, {"measurement": "change in vivo at 100 mg/kg", "setting": "obese female Zucker rats; Rattus norvegicus, 336 h, obese female Zucker rats, oral daily, fourteen days, 100 mg/kg/day, read-out: Glucose, Percent Change from Pre-treatment", "value": -4, "unit": "%"}, {"measurement": "change in vivo at 100 mg/kg", "setting": "obese female Zucker rats; Rattus norvegicus, 336 h, obese female Zucker rats, oral daily, fourteen days, 100 mg/kg/day, read-out: HDL-C, Percent Change from Pre-treatment", "value": 246, "unit": "%"}, {"measurement": "change in vivo at 100 mg/kg", "setting": "obese female Zucker rats; Rattus norvegicus, 336 h, obese female Zucker rats, oral daily, fourteen days, 100 mg/kg/day, read-out: Insulin, Percent Change from Pre-treatment", "value": -15, "unit": "%"}, {"measurement": "change in vivo at 100 mg/kg", "setting": "obese female Zucker rats; Rattus norvegicus, 336 h, obese female Zucker rats, oral daily, fourteen days, 100 mg/kg/day, read-out: NEFA, Percent Change from Pre-treatment", "value": -40, "unit": "%"}, {"measurement": "change in vivo at 100 mg/kg", "setting": "obese female Zucker rats; Rattus norvegicus, 336 h, obese female Zucker rats, oral daily, fourteen days, 100 mg/kg/day, read-out: Non HDL-C, Percent Change from Pre-treatment", "value": 20, "unit": "%"}, {"measurement": "change in vivo at 100 mg/kg", "setting": "obese female Zucker rats; Rattus norvegicus, 336 h, obese female Zucker rats, oral daily, fourteen days, 100 mg/kg/day, read-out: TC, Percent Change from Pre-treatment", "value": 161, "unit": "%"}, {"measurement": "change in vivo at 100 mg/kg", "setting": "obese female Zucker rats; Rattus norvegicus, 336 h, obese female Zucker rats, oral daily, fourteen days, 100 mg/kg/day, read-out: TG, Percent Change from Pre-treatment", "value": -51, "unit": "%"}, {"measurement": "melting point", "value": "187 to 189", "unit": "°C"}]}]}
